This is an account of results in article PMC6934184, “Selective DNA-PKcs inhibition extends the therapeutic index of localized radiotherapy and chemotherapy” (The Journal of Clinical Investigation, 2019).

The structures appear in SMILES notation.

The inhibition is the share of the control response that was lost under treatment. A low value points to little suppression.

This experiment deals with T1, PAK6 (Homo sapiens, UniProt Q9NQU5).
T1 construct: purchased Thermo Fisher Scientific (Life Technologies) SelectScreen
T1 sequence (Q9NQU5 whole entry): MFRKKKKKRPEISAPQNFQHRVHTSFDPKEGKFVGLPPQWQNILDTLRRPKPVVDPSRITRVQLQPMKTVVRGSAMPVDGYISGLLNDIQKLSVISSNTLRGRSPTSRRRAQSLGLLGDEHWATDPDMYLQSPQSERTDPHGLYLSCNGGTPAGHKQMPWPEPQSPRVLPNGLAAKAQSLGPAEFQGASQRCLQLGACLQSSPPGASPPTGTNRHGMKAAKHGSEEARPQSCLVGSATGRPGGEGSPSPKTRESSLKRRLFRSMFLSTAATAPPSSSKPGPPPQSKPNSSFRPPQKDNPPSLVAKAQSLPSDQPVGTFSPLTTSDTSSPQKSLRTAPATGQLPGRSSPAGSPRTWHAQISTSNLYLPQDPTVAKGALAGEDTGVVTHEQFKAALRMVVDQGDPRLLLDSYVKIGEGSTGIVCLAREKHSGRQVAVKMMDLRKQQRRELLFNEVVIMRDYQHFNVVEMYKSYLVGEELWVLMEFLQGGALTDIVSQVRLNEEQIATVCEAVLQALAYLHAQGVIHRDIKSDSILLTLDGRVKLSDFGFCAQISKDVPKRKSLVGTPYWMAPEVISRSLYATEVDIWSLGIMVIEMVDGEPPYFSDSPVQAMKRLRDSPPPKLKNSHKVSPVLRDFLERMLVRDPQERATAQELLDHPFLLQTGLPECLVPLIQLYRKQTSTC
As to the kind of experiment: SelectScreen Z'LYTE. The experiment is classed as biochemical. In a few lines: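 SelectScreen broad panel; activity (Z'LYTE, Adapta) plus binding formats. ATP: Km app for CSF1R Z'LYTE; 10 for CAMK1 Adapta. Readout = % per kinase.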

The compound `CN(C(=O)CN1CCOCC1)c1ccc2sc3c(-c4cccc5c(=O)cc(N6CC7CCC(C6)O7)oc45)cccc3c2c1` [NU5455] showed an inhibition at 1 µM of 3%.
